Laboratory results reported in patent publication US20140289973A1, “1-Hexyl-1H-Pyrazole-4,5-Diamine Hemisulfate, and Its Use in Dyeing Compositions” (The Procter & Gamble Company, priority 2012, published 2014).

Assay: Storage stability of C6-pyrazole salts, HPLC measurement of dimer formation
Assay type: physicochemical
Settings: for Amount of dimers at the time point t0: t0, sample of about 1.5 g spread on filter paper, HPLC, dimer of formula (II); for Amount of dimers at the time point t1: t1, 23 days in closed dark storage room at 21° C., controlled humidity; for Amount of dimers at the time point t2: t2, 26 days: 23 days dark, then 3 days without light protection under lab hood at room temperature, higher air humidity; for Amount of dimers at the time point t3: t3, 31 days: 5 extra days under the same conditions as t2
Protocol: As summarized in the table below, three 1-hexyl-1H-pyrazole-4,5-diamine salts were synthesized through precipitation of the free base in presence of the corresponding acids and purification to obtain the hemisulfate, sulfate and dihydrochloride salts. Each sample was then placed on paper.
In order to measure and compare the stability of the three different salts, a small amount of each sample was taken at four different time points and an HPLC analysis was conducted in order to measure the formation of the undesired dimer of formula (II).

Compound | Amount of dimers at the time point t0 | Amount of dimers at the time point t1 | Amount of dimers at the time point t2 | Amount of dimers at the time point t3 | Rate of formation of the dimer impurity (compared with the sulfate and dihydrochloride salts, storage conditions of table 1) | Stability compared with the corresponding sulfate and dihydrochloride salts (conditions of storage described in table 1)
CCCCCCn1ncc(N)c1N.Cl.Cl [C6-Pyrazole x 2 HCl] | 45 ppm | 511 ppm | 772 ppm | 1323 ppm |  | 
CCCCCCn1ncc(N)c1N.O=S(=O)(O)O [C6-Pyrazole sulfate] | 11 ppm | 461 ppm | 726 ppm | 1083 ppm |  | 
CCCCCCn1ncc(N)c1N.CCCCCCn1ncc(N)c1N.O=S(=O)(O)O [C6-Pyrazole hemisulfate, 1-hexyl-1H-pyrazole-4,5-diamine hemisulfate] | 6 ppm | 37 ppm | 43 ppm | 74 ppm | much lower | more stable
